Each structure is given as a SMILES string.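 Five compound concentrations were applied to cells in 96-well plates for 48 hours; endpoints were derived by simple linear interpolation of the resulting dose-response curve. The concentration for full growth arrest is given as TGI.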

Assay in all cases: inhibition of tumour cell growth, NCI panel, 48 h
Assay [1] has as its system TK-10 renal.
Assay [2] has as its system HOP-62 NSCLC.
Assay [3] deals with IGROV1 ovarian.
Assay [4] has as its system OVCAR-4 ovarian.
Assay [5] concerns DU-145 prostate.
The test system of assay [6] is NCI-H23 lung.
For assay [7], the system named is OVCAR-3 ovarian.
Assay [8] concerns HCT-116 colon.
Assay [9] has as its system MDA-MB-435.
In assay [10] the test system is SK-OV-3 ovarian.
For assay [11], the system named is UACC-62 melanoma.
Assay [12] deals with NCI-H226 lung.
The subject of assay [13] is HL-60(TB) leukemia.

Turning to `COP(=N[Si](C)(C)C)(OC)OC`, the TGI in assay [1], in assay [2], in assay [3], in assay [4], in [5] and in [6] was over 100 µM each time. Further, the TGI in [7], in [8], in [9], in [10], in assay [11] and in assay [12] was over 100 µM in each case. The TGI in [13] is over 100 µM.
As for `COC(=O)C1=C(C(=O)OC)C2(c3ccccc3)c3ccccc3C(=O)C1N2C1CCCCC1` (stereo not given), the TGI in assay [1], in [2], in [3], in assay [4], in assay [5] and in assay [6] was over 100 µM throughout. The TGI in [7], in [8], in assay [9], in [10], in assay [11] and in assay [12] was over 100 µM throughout. In assay [13], the TGI was over 100 µM.
Consider `NS(=O)(=O)c1ccc(NC(=S)/N=C/c2c(O)c3ccccc3[nH]c2=O)cc1`, for which the TGI in assay [1], in assay [2], in assay [3], in assay [4], in assay [5] and in [6] was over 100 µM each time. Further, the TGI in [7], in assay [8], in assay [9], in [10], in assay [11] and in [12] was over 100 µM in each case. In addition, the TGI in [13] worked out at 5.05 µM.
As to `N#CCN(Cc1ccccc1)[C@H]1CCC[C@]1(O)/C=C/c1ccc2c(c1)OCO2`, the TGI is over 100 µM in [1]; 82.6 µM in assay [2]; 92.2 µM in assay [3]; over 100 µM in [4]; over 100 µM in assay [5]; 69.2 µM in assay [6]. The TGI in assay [7] was 57.6 µM; in assay [9], 53.2 µM; in [10] it was over 100 µM; in assay [11], 37.9 µM; in [12] it was 44.4 µM; in assay [13], 34.9 µM.
Consider `Cc1cc2c(c(C=Nc3ccc(N(C)C)cc3)c1)OC1(C=C2)Oc2ccccc2C(=O)N1C` (stereo not given), for which the TGI is 30.7 µM in assay [1]; over 67.5 µM in assay [2]; 27.1 µM in assay [3]; 25.1 µM in assay [4]; 27.9 µM in [5]; 28.4 µM in assay [6]. The TGI in assay [7] is over 50.1 µM; in [8], 21.6 µM; in [9], 26.7 µM; in [10] it was 66.6 µM; in [11], 26.7 µM; in [12] it was 70.2 µM. In assay [13], this molecule returned a TGI of 19.9 µM.
For `CSC1=C(C)S/C(=C\c2ccc(/C=C3\SC(C)=C(SC)S3)cc2)S1`, the TGI in assay [1], in assay [2], in [3], in assay [4], in assay [5] and in assay [6] was over 100 µM throughout. Besides, the TGI in assay [7], in assay [8], in assay [9], in assay [10], in [11] and in assay [12] was over 100 µM in each case. For the same molecule, in assay [13], the TGI is over 100 µM.
Take `CC(=O)O[C@H]1CC[C@@]2(C)C(=CC[C@H]3[C@@H]4C[C@H](N5CCN(C)CC5)[C@H](OC(C)=O)[C@@]4(C)CC[C@@H]32)C1`: the TGI was over 100 µM in assay [1]; 52.6 µM in assay [2]; 37.9 µM in assay [3]; 32.6 µM in assay [4]; over 100 µM in assay [5]; 48.3 µM in assay [6]. Moreover, the TGI in assay [7] is 21.5 µM; in assay [8] it was 25.7 µM; in assay [9], 19.2 µM; in assay [10], over 65.8 µM; in [11], 26.4 µM; in assay [12], over 85.6 µM. This molecule also came in with a TGI in assay [13] of 6.9 µM.
Consider `COc1ccccc1/[N+]([O-])=C/c1ccccc1OC(=S)S`, for which the TGI in [1] was over 100 µM; in assay [3], 77.2 µM; in assay [4] it was over 100 µM; in [5] it was over 100 µM; in [6], over 100 µM; in assay [7], over 100 µM. Moreover, the TGI in assay [8] is over 100 µM; in [9], 36 µM; in [10] it was over 100 µM; in assay [11] it was over 100 µM; in [12] it was over 100 µM; in assay [13] it was 74.5 µM.
For `N#Cc1cccc(Nc2ccccc2SSc2ccccc2Nc2cccc(C#N)c2)c1`, the TGI in assay [1] is over 21.5 µM; in assay [2], over 21.5 µM; in assay [3] it was 16.9 µM; in assay [4] it was over 21.5 µM; in [5], over 21.5 µM; in [6] it was over 21.5 µM. Moreover, the TGI was over 21.5 µM in [7]; 16.5 µM in assay [8]; 18.2 µM in assay [9]; over 21.5 µM in [10]; over 21.5 µM in [11]; 18.3 µM in assay [12]. Besides, the TGI in assay [13] was determined as 14.8 µM.
For the molecule `COC(=O)/N=[N+](\[O-])C(c1ccc(Cl)cc1)c1ccc(Cl)cc1`, the TGI in assay [1], in assay [3], in assay [4], in [5], in assay [6] and in assay [7] was over 100 µM in each case. Besides, the TGI was 95.3 µM in assay [8]; over 100 µM in [9]; over 100 µM in assay [10]; over 100 µM in [11]; 89.6 µM in [12]; 97.3 µM in [13].
Take `COc1ccc(C[C@H]2NC[C@H](OC(C)=O)[C@H]2OC(C)=O)cc1`: the TGI in assay [1] was over 35.3 µM; in [2], 2.75 µM; in assay [3], 0.674 µM; in assay [4], 0.706 µM; in assay [5], 0.903 µM; in assay [6] it was 0.94 µM. In addition, the TGI in assay [7] is 0.85 µM; in [8] it was 0.685 µM; in [9] it was 1.23 µM; in assay [10], 2.56 µM; in assay [11] it was 4.23 µM; in assay [12], 1.08 µM. The molecule further showed a TGI in assay [13] of 0.326 µM.
